Experimental data as given in article PMC9482650, “Quantitative fragmentomics allow affinity mapping of interactomes” (Nature Communications, 2022).
Ends that are not written are not given here. * marks the point of attachment. Biotin = O=C1N[C@H]2[C@H](CS[C@H]2CCCCC(=O)*)N1; ttds = NCCCOCCOCCOCCCNC(=O)CCC(=O)*

How the values were obtained:
Format in all cases: binding, human
[1] = test system: HeLa cell extract preys; assay: PBM-AP-MS, PBM peptide baits
Experimental: (§1) HEK293T and HeLa cells were authenticated and found 100% identity to ATCC cat. CRL-3216 and ATCC cat. CCL-2, respectively. Jurkat and HaCat cell lines were not authenticated (original source: ECACC and Deutsches Krebsforschungszentrum DKFZ, respectively). HeLa cells were grown in DMEM (1 g/L glucose, Gibco) medium completed with 5% FCS and 40 μg/mL gentamicin, diluted every 3rd/4th day 1/10. HaCat cells were grown in DMEM (1 g/L glucose, Gibco) medium completed with 10% FCS and 40 μg/mL gentamicin, diluted every 3rd/4th day 1/4. Jurkat cells were grown in RPMI (Gibco) medium completed with 10% FCS and 40 μg/mL gentamicin, diluted every 3rd/4th day 1/12. All cells were kept at 37 °C and 5% CO2. For proteomics analyses cells were seeded on T-175 flasks. After they reached confluency, adherent cells were washed with PBS once and collected by scraping with ice-cold lysis buffer (Hepes-KOH pH 7.5 50 mM, NaCl 150 mM, Triton X-100 1%, complete EDTA-free protease inhibitor cocktail 1×, EDTA 2 mM, TCEP 5 mM, glycerol 10%). Jurkat cells were collected by 1000 g × centrifugation, washed once with PBS, then collected by 1000 g × 5 min centrifugation again and lysed in ice-cold lysis buffer. Lysates were sonicated 4 × 20 s with 1 s long pulses on ice, then incubated rotating at 4 °C for 30 min. Lysates were centrifuged at 12,000 rpm 4 °C for 20 min and supernatant was kept for further analysis. Concentration determination was carried out by standard Bradford method (Bio-Rad Protein Assay Dye Reagent #5000006) using BSA (MP BIomedicals #160069) as control on a Bio-Rad SmartSpec 3000 spectrophotometer instrument.
(§2) For PBM-AP-MS experiments, 30 μl streptavidin resin was mixed with biotin or peptide at 50–60 μM concentration in 6–6.5 resin volume for 60 min to achieve resin saturation. For PDZ-AP-MS experiments, 30 μl streptavidin resin was mixed with biotinylated MBP or MBP-PDZ at 40-50 μM concentration in >1000× resin volume for 60 min to achieve resin saturation. After saturation, resins were washed a single time (ten resin volume, holdup buffer), and were depleted with biotin (1 mM biotin, 5–10 resin volume, 10 min). Finally, resins were washed two times. 0.5 ml 2 mg/ml cell lysate was added to the dry resin (1 mg total input) and were incubated at 4 °C for 2 h. Then, the beads were washed three times with 10 resin volume buffer containing: 50 mM TRIS pH 8.5, 150 mM NaCl, 1% TritonX-100, 10× complete EDTA-free protease inhibitor cocktail, 2 mM EDTA, 1 mM TCEP. Then, the beads were washed two times with ten resin volume buffer containing: 50 mM TRIS pH 8.5, 150 mM NaCl, 1 mM TCEP. Finally, captured protein was eluted from the resin in two steps and the eluted fractions were pooled. For each elution the beads were incubated for 30 min with three resin volume buffer containing: 20 mM TRIS pH8.5, 100 mM NaCl, 500 μM TCEP, 8 M Urea. Between each step, the beads were separated by mild centrifugation and the supernatant was removed by gentle pipetting.
(§3) The samples were precipitated with TCA 20% overnight at 4 °C and centrifuged at 14,000 rpm for 10 min at 4 °C. The protein pellets were washed twice with 1 mL cold acetone and air dried. The protein extracts were solubilized in urea 8 M, reduced with 5 mM TCEP for 30 min, and alkylated with 10 mM iodoacetamide for 30 min in the dark. Double digestion was performed at 37 °C with 500 ng endoproteinase Lys-C for 4 h, followed by fourfold dilution and an overnight digestion with 500 ng trypsin. Peptide mixtures were then desalted on C18 spin-column and dried on Speed-Vacuum.
(§4) Samples were analyzed using an Ultimate 3000 nano-RSLC (Thermo Scientific, San Jose California) coupled in line with a LTQ-Orbitrap ELITE mass spectrometer via a nano-electrospray ionization source (Thermo Scientific, San Jose California). […]

[2] = test system: HaCat cell extract preys; assay: PBM-AP-MS, PBM peptide baits
Experimental: as §1, §2, §3, §4

[3] = target: PDZ-proteins; assay: Estimated PPI affinity, additive association constants of all PDZ sites;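 also: calculated estimate, not directly measured: domain-motif affinities from holdup assays, association constants summed over all PDZ sites, one motif bound at a time, weak interactions ignored, giving a lower limit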
From the text: We used the previously generated domain-motif interactome, consisting of the composite affinities (i.e., taken from the most reliable holdup method; see above) to estimate affinities of PPIs. We assumed that a multidomain PDZ-protein can only interact with a single PBM at the same time (Eq. (4)):4 PDZ+PBM⇌(PDZ−PBM)site1,or(PDZ−PBM)site2,or(PDZ−PBM)siten
Using this approximation, as proposed by others before[45], the association constant of a multi-site interaction is the sum of the association constants of all sites (Eq. (5)):5 Ka,additive=[PDZ−PBM]site1+[PDZ−PBM]site2+…+[PDZ−PBM]siten/[PDZ]×[PBM]=∑Ka,site
The contribution of unmeasurable weak interactions was also neglected in the calculations.

HPV35E6 ({Biotin-ttds}-SKPTRRETEV)
Enrichment values compared to biotin controls ([1]; prey AHNAK, PBM peptide bait): 0.9 | Enrichment values compared to biotin controls ([1]; prey ARHGAP21, PBM peptide bait): 1.3 | Enrichment values compared to biotin controls ([1]; prey ARHGEF12, PBM peptide bait): 1.1 | Enrichment values compared to biotin controls ([1]; prey CASK, PBM peptide bait): 4.9 | Enrichment values compared to biotin controls ([1]; prey DLG1, PBM peptide bait): 6.4 | Enrichment values compared to biotin controls ([1]; prey DLG3, PBM peptide bait): 5.8 | Enrichment values compared to biotin controls ([1]; prey DLG5, PBM peptide bait): 1.3 | Enrichment values compared to biotin controls ([1]; prey DVL2, PBM peptide bait): 0.8 | Enrichment values compared to biotin controls ([1]; prey GOPC, PBM peptide bait): 1.4 | Enrichment values compared to biotin controls ([1]; prey HTRA1, PBM peptide bait): 2.0 | Enrichment values compared to biotin controls ([1]; prey InaDl, PBM peptide bait): 1.3 | Enrichment values compared to biotin controls ([1]; prey LAP2, PBM peptide bait): 1.4 | Enrichment values compared to biotin controls ([1]; prey LIN7C, PBM peptide bait): 131.1 | Enrichment values compared to biotin controls ([1]; prey LMO7, PBM peptide bait): 2.0 | Enrichment values compared to biotin controls ([1]; prey MPDZ, PBM peptide bait): 2.5 | Enrichment values compared to biotin controls ([1]; prey MPP5, PBM peptide bait): 4.0 | Enrichment values compared to biotin controls ([1]; prey MPP6, PBM peptide bait): 1.1 | Enrichment values compared to biotin controls ([1]; prey MPP7, PBM peptide bait): 11.7 | Enrichment values compared to biotin controls ([1]; prey NHERF2, PBM peptide bait): 0.9 | Enrichment values compared to biotin controls ([1]; prey NHERF3, PBM peptide bait): 0.9 | Enrichment values compared to biotin controls ([1]; prey PDLIM5, PBM peptide bait): 0.8 | Enrichment values compared to biotin controls ([1]; prey PDLIM7, PBM peptide bait): 0.9 | Enrichment values compared to biotin controls ([1]; prey PSMD9, PBM peptide bait): 0.6 | Enrichment values compared to biotin controls ([1]; prey SCRIB, PBM peptide bait): 217.5 | Enrichment values compared to biotin controls ([1]; prey SIPA1L1, PBM peptide bait): 0.5 | Enrichment values compared to biotin controls ([1]; prey SNTA1, PBM peptide bait): 0.5 | Enrichment values compared to biotin controls ([1]; prey SNTB1, PBM peptide bait): 8.8 | Enrichment values compared to biotin controls ([1]; prey SNTB2, PBM peptide bait): 48.7 | Enrichment values compared to biotin controls ([1]; prey SNX27, PBM peptide bait): 1.4 | Enrichment values compared to biotin controls ([1]; prey SYNJ2BP, PBM peptide bait): 63.6 | Fold changes HeLa, SYNJ2BP ([1]; prey SYNJ2BP, PBM peptide bait): 63.6 | Enrichment values compared to biotin controls ([1]; prey TJP1, PBM peptide bait): 0.9 | Enrichment values compared to biotin controls ([1]; prey TX1B3, PBM peptide bait): 15.3 | Enrichment values compared to biotin controls ([2]; prey AHNAK2, PBM peptide bait): 0.845 | Enrichment values compared to biotin controls ([2]; prey AHNAK, PBM peptide bait): 0.7 | Enrichment values compared to biotin controls ([2]; prey DLG1, PBM peptide bait): 5.3 | Enrichment values compared to biotin controls ([2]; prey GORASP2, PBM peptide bait): 0.7 | Enrichment values compared to biotin controls ([2]; prey InaDl, PBM peptide bait): 0.6 | Enrichment values compared to biotin controls ([2]; prey LAP2, PBM peptide bait): 0.849 | Enrichment values compared to biotin controls ([2]; prey LIN7C, PBM peptide bait): 269.9 | Enrichment values compared to biotin controls ([2]; prey MAGI3, PBM peptide bait): 4.3 | Enrichment values compared to biotin controls ([2]; prey MPP5, PBM peptide bait): 0.7 | Enrichment values compared to biotin controls ([2]; prey MPP6, PBM peptide bait): 0.8 | Enrichment values compared to biotin controls ([2]; prey MPP7, PBM peptide bait): 30.8 | Enrichment values compared to biotin controls ([2]; prey NHERF2, PBM peptide bait): 0.665 | Enrichment values compared to biotin controls ([2]; prey NHERF, PBM peptide bait): 0.215 | Enrichment values compared to biotin controls ([2]; prey PDLIM1, PBM peptide bait): 0.569 | Enrichment values compared to biotin controls ([2]; prey PDLIM2, PBM peptide bait): 1.6 | Enrichment values compared to biotin controls ([2]; prey PDLIM4, PBM peptide bait): 1.0 | Enrichment values compared to biotin controls ([2]; prey PDLIM5, PBM peptide bait): 1.1 | Enrichment values compared to biotin controls ([2]; prey PDLIM7, PBM peptide bait): 0.422 | Enrichment values compared to biotin controls ([2]; prey PTPN3, PBM peptide bait): 0.9 | Enrichment values compared to biotin controls ([2]; prey SCRIB, PBM peptide bait): 3.1 | Enrichment values compared to biotin controls ([2]; prey SNTB2, PBM peptide bait): 7.5 | Enrichment values compared to biotin controls ([2]; prey SNX27, PBM peptide bait): 3.3 | Enrichment values compared to biotin controls ([2]; prey SYNJ2BP, PBM peptide bait): 25.2 | Fold changes HaCat, SYNJ2BP ([2]; prey SYNJ2BP, PBM peptide bait): 25.2 | Enrichment values compared to biotin controls ([2]; prey TJP1, PBM peptide bait): 1.3 | Enrichment values compared to biotin controls ([2]; prey TJP2, PBM peptide bait): 1.8 | Enrichment values compared to biotin controls ([2]; prey TX1B3, PBM peptide bait): 3.3 | final additive pKd ([3]; PDZ-protein AHNAK): 3.5 | final additive pKd ([3]; PDZ-protein CASK): 3.5 | final additive pKd ([3]; PDZ-protein DLG1): 5.779 | final additive pKd ([3]; PDZ-protein InaDl): 3.5 | final additive pKd ([3]; PDZ-protein LAP2): 3.6933 | final additive pKd ([3]; PDZ-protein LIN7C): 3.759 | final additive pKd ([3]; PDZ-protein LNX2): 3.5 | final additive pKd ([3]; PDZ-protein MAGI3): 5.407 | final additive pKd ([3]; PDZ-protein MPP5): 3.5 | final additive pKd ([3]; PDZ-protein MPP6): 3.5 | final additive pKd ([3]; PDZ-protein MPP7): 3.5 | final additive pKd ([3]; PDZ-protein NHERF2): 3.774 | final additive pKd ([3]; PDZ-protein PDLIM2): 3.5 | final additive pKd ([3]; PDZ-protein PDLIM5): 3.5 | final additive pKd ([3]; PDZ-protein PDLIM7): 3.5 | final additive pKd ([3]; PDZ-protein PSMD9): 3.5 | final additive pKd ([3]; PDZ-protein SCRIB): 5.233 | final additive pKd ([3]; PDZ-protein SNTB1): 4.679 | final additive pKd ([3]; PDZ-protein SNX27): 4.662 | final additive pKd ([3]; PDZ-protein SYNJ2BP): 5.6853 | final additive pKd ([3]; PDZ-protein TX1B3): 4.927
